# Read-outs that look alike come from different tables or passages of the source. Marks after values point to notes of the source that are not given here.
# Key:
# [1] = test system: tryptophan transport system of Mtb H37Rv strain; settings: tryptophan transport system of Mtb H37Rv strain ref 27; read-out: Michaelis–Menten constant (KM); cited from earlier work
# [2] = test system: Mycobacterium tuberculosis H37Rv Strain; experiment: MIC by resazurin reduction microplate assay (REMA), H37Rv; type: cell-based; settings: Mtb H37Rv; for MIC: REMA
# [3] = Metabolic stability in rat liver microsomes; type: in vitro ADME; settings: rat
# Procedure: The compound was incubated at 37 °C in the concentration of 20 μM with rat liver microsomal fractions in PBS solution at pH 7.4 solution. As previously described,[31] rat liver microsomal fractions were seeded by centrifugation at 9.000 × g. To the supernatant containing the postmithocondrial with cytosolic and membrane-bound enzymes, 4 μM 5-FI was added and incubated at 37 °C. The interaction between the compound in the incubation mixture and the enzyme containing NADPH at 1 mg/mL concentration was measured by HPLC-MS/MS technique to determine the in vitro compound consumption by the microsomal fractions at 0, 5, 15, and 30 min reaction (incubation) time. The intrinsic compound clearance was taken as the half-life, and the disappearance was compared with the positive control, verapamil(2 μM).
# [4] = Chemical stability at pH 1.2, 7.4 and 9.1; type: physicochemical; settings: 37 °C for 24 h
# Procedure: The compounds to be tested were prepared in a 100 μM solution and incubated at 37 °C for 24 h in three solutions representing the physiologically relevant pHs to drug administration: pH 1.2 (stomach), pH 7.4 (plasma), and pH 9.2 (intestinal tissue). The compounds were quantified by HPLC-MS/MS. The chemical stability experiments were carried out in triplicates to ensure reproducibility. The results were presented as percentage, comparing the signal at time zero of the assay, considering this measure 100%, with measurements after the incubation time. Alprenolol was used as the analytical control (data not shown). The results were presented as the percentage, comparing the signal at time zero of the assay (100%) with the signal produced by concentrations after the incubation period.
# [5] = Chemical stability in H2O at 37 °C, open and closed system (volatility assay)
# [6] = In vivo absorption assay: plasma concentration after gavage; settings: mice, gavage 400 mg/kg
# [7] = Aqueous solubility at different pHs; type: physicochemical; settings: thermodynamic from solid, 25 °C for 4 h
# Procedure: The compound was weighed (1 mg) and solubilized in phosphate-buffered saline (PBS, pH 7.4), HCl 0.1 M (pH 1.2), and NH4HCO3 0.1 M (pH 9.2) to a final concentration of 1 mg/mL. The solutions were kept under stirring (250 rpm) for 4h at 37 °C. The solutions were filtered ([…] PDVA filter) and analyzed by HPLC. DMSO solution 1 mg/mL was used as the control for 100% soluble.
# Mtb H37Rv strain = experiment: In vivo model of TB infection in mice; settings: for lungs mean log10 CFU/mL ± SD / spleen weight mean g ± SD: gavage, single daily dose, 15 administrations; for toxicity in mice (in words): infected mice, up to 21 days
# [8] = Mycobacterium tuberculosis, H37RV, most frequent value of three independent assays
# [9] = most frequent value of three independent assays
compound,measurement,setting,value
"N[C@@H](Cc1c[nH]c2ccccc12)C(=O)O [tryptophan, L-tryptophan]",Km,[1],1250 µM
Oc1ccc2[nH]ccc2c1 [Compound 6],MIC,[2]; [8],> 300 µM
Fc1cccc2cc[nH]c12 [Compound 10],reduction of activity compared to 5-FI (MIC ratio),[2],> 31 fold
same,MIC,[2]; [8],148 µM
Fc1cccc2[nH]ccc12 [Compound 8],reduction of activity compared to 5-FI (MIC ratio),[2],approximately 4 fold
same,MIC,[2]; [8],18.5 µM
O=[N+]([O-])c1ccc2[nH]ccc2c1 [Compound 5],MIC,[2]; [8],> 247 µM
"CO[C@H]1/C=C/O[C@@]2(C)Oc3c(C)c(O)c4c(O)c(c(/C=N/N5CCN(C)CC5)c(O)c4c3C2=O)NC(=O)/C(C)=C\C=C\[C@H](C)[C@H](O)[C@@H](C)[C@@H](O)[C@@H](C)[C@H](OC(C)=O)[C@@H]1C [RIF, rifampin, reference compound]",MIC,[2]; [8],0.09 µM
"Cl.Fc1ccc2[nH]ccc2c1 [Compound 11, 5-fluoroindole hydrochloride]",CLint scaled,"[3]; pH 7.4, read-out: metabolic stability Clint (intrinsic clearance)",48 mL/min/kg
same,half-life,"[3]; pH 7.4, read-out: metabolic stability t1/2 (half-life)",12 min
same,chemical stability pH 1.2,[4]; 0.1 M HCl,100%
same,chemical stability pH 9.1,[4]; 0.1 M NH4HCO3,90.5%
same,chemical stability pH 7.4,[4]; PBS,80.3%
same,chemical stability at all pH values tested,"[4]; pH 1.2, 7.4, 9.1",> 80%
same,MIC,[2]; [9],29.1 µM
same,"chemical stability, closed system",[5]; 0 h,100 ± 0.0%
same,"chemical stability, open system",[5]; 0 h,100 ± 0.0%
same,"chemical stability, closed system",[5]; 1 h,95.3 ± 0.1%
same,"chemical stability, open system",[5]; 1 h,97.6 ± 0.0%
same,"chemical stability, closed system",[5]; 2 h,95.0 ± 0.2%
same,"chemical stability, open system",[5]; 2 h,98.0 ± 0.1%
same,"chemical stability, closed system",[5]; 4 h,104.6 ± 0.2%
same,"chemical stability, open system",[5]; 4 h,100.3 ± 0.5%
same,"chemical stability, closed system",[5]; 6 h,97.9 ± 0.1%
same,"chemical stability, open system",[5]; 6 h,103.9 ± 0.1%
same,"chemical stability, closed system",[5]; 24 h,110.8 ± 0.2%
same,"chemical stability, open system",[5]; 24 h,113.5 ± 0.1%
same,"chemical stability, closed system",[5]; 48 h,124.1 ± 0.1%
same,"chemical stability, open system",[5]; 48 h,114.3 ± 0.0%
same,"plasma concentration, mean ± SD",[6]; 15 min,32.6 ± 14.7 µM
same,"plasma concentration, mean ± SD",[6]; 30 min,82.3 ± 35.05 µM
same,plasma concentrations (range),"[6]; joint range over 5-FI and 5-FI.HCl, 15 and 30 min, 400 mg/kg",32.6 to 82.3 µM
same,solubility at 4 h,"[7]; pH 1.2, simulated gastric fluid, 0.1 M HCl, read-out: aqueous solubility pH 1.2",2.3 µM
same,solubility at 4 h,"[7]; pH 9.1, aqueous buffer, 0.1 M NH4HCO3, read-out: aqueous solubility pH 9.1",1110 µM
same,solubility at 4 h,"[7]; phosphate-buffered saline, pH 7.4, aqueous buffer, PBS, read-out: aqueous solubility pH 7.4",600 µM
same,lungs mean log10 CFU/mL ± SD,Mtb H37Rv strain; 10 μmol/kg,5.80 ± 0.20 log10 CFU/mL
same,spleen weight mean g ± SD,Mtb H37Rv strain; 10 μmol/kg,0.58 ± 0.19 g
same,lungs mean log10 CFU/mL ± SD,Mtb H37Rv strain; 30 μmol/kg,6.21 ± 0.32 log10 CFU/mL
same,spleen weight mean g ± SD,Mtb H37Rv strain; 30 μmol/kg,0.55 ± 0.23 g
same,lungs mean log10 CFU/mL ± SD,Mtb H37Rv strain; 100 μmol/kg,5.86 ± 0.67 log10 CFU/mL
same,spleen weight mean g ± SD,Mtb H37Rv strain; 100 μmol/kg,0.62 ± 0.35 g
same,number of CFUs in the lungs compared to the EC (early control) group (in words),Mtb H37Rv strain; 200 μmol/kg,significantly reduced
same,reduction of mycobacterial load in the lungs compared to vehicle group (in words),Mtb H37Rv strain; 200 μmol/kg,significantly reduce
same,lungs mean log10 CFU/mL ± SD,Mtb H37Rv strain; 200 μmol/kg,"3.68 ± 0.45***^, ### log10 CFU/mL"
same,spleen weight mean g ± SD,Mtb H37Rv strain; 200 μmol/kg,0.28 ± 0.06 g
same,reduction of CFUs in the lungs compared to vehicle group (in words),"Mtb H37Rv strain; 10, 30 and 100 μmol/kg",not able to reduce
same,toxicity in mice (in words),"Mtb H37Rv strain; 200 μmol/kg, listed as 5-FI.HCL",no evidence of a toxic effect
same,toxicity in mice (in words),"Mtb H37Rv strain; 200 μmol/kg, listed as 5-FI.HCl",no toxicity
"Brc1ccc2[nH]ccc2c1 [Compound 3, 5-bromoindole]",MIC,[2]; [9],>204.0 µM
same,MIC,[2]; [8],> 204 µM
Fc1ccc2cc[nH]c2c1 [Compound 9],reduction of activity compared to 5-FI (MIC ratio),[2],more than 15 fold
same,MIC,[2]; [8],74 µM
"NNC(=O)c1ccncc1 [INH, isoniazid, reference compound]",MIC,[2]; [8],2.3 µM
same,lungs mean log10 CFU/mL ± SD,Mtb H37Rv strain; 150 μmol/kg,"2.43 ± 0.40***^, ### log10 CFU/mL"
same,spleen weight mean g ± SD,Mtb H37Rv strain; 150 μmol/kg,0.23 ± 0.04 g
COc1ccc2[nH]ccc2c1 [Compound 7],MIC,[2]; [8],> 272 µM
"Clc1ccc2[nH]ccc2c1 [Compound 2, 5-chloroindole]",MIC,[2]; [9],>263.9 µM
same,MIC,[2]; [8],> 264 µM
N#Cc1ccc2[nH]ccc2c1 [Compound 4],MIC,[2]; [8],> 281 µM
"N[C@@H](Cc1c[nH]c2ccc(F)cc12)C(=O)O [5-fluorotryptophan, reference compound]",MIC,"[2]; Mycobacterium tuberculosis, H37RV",> 20 µg/mL
same,MIC,[2]; [8],> 90 µM

# Reference: paper PMC11292626, “5-Fluoroindole Reduces the Bacterial Burden in a Murine Model of Mycobacterium tuberculosis Infection” (ACS Omega, 2024)
